Data published in US7105564B1, “Pharmaceutical composition comprising a dual antagonist against PGD2/TXA2 receptors having a [2.2.1] or [3.1.1] bicyclic skeleton” (Shionogi & Co., Ltd., priority 1999, dated 2006).
Read-outs that look alike come from different tables or passages of the source. Marks after values point to notes of the source that are not given here.

Tests used:
PGD2 receptor [1] = biological target: T1, PGD2 receptor (Homo sapiens, UniProt Q13258); assay: Antagonistic activity against PGD2 receptor using human platelet (inhibition of cAMP increase caused by PGD2); format: cell-based
T1 sequence (Q13258 1-359): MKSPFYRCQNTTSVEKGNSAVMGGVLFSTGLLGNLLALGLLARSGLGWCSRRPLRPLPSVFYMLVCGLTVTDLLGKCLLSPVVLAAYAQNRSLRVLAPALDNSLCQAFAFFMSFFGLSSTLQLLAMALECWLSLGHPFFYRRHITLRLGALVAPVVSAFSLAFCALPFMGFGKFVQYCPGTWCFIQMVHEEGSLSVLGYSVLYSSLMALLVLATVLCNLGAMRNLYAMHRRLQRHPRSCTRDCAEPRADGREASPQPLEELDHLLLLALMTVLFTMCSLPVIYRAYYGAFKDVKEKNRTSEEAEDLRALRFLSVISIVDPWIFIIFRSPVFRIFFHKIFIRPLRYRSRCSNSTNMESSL
Procedure: Experiment 3 Evaluation of Antagonistic Activity Against PGD2 Receptor Using Human Platelet
Peripheral blood was collected from a healthy volunteer using a syringe in which 1/9 volume of a citric acid/dextrose solution was previously added. The sample was subjected to centrifugation at 180 g for 10 min to obtain the supernatant (PRP: platelet rich plasma). The resultant PRP was washed 3 times with a washing buffer and the number of platelets was counted with a micro cell counter. A suspension adjusted to contain the platelets at a final concentration of 5×10^8/ml was warmed at 37° C., then subjected to the pre-treatment with 3-isobutyl-1-methylxanthine (0.5 mM) for 5 min. To the suspension was added a test compound diluted at various concentration, and 10 minutes later, 0.1 μM PGD2 was added to induce the reaction 2 minutes later, hydrochloric acid was added to terminate the reaction. The platelet was destroyed with an ultrasonic homogenizer. After centrifugation, the cAMP in the supernatant was determined by radioimmunoassay. PGD2 receptor antagonism of a drug was evaluated as follows: the inhibition rate regarding cAMP increased by the addition of PGD2 was determined at each concentration, and the concentration of the drug required for 50% inhibition (IC50) was calculated.

TXA2 receptor = biological target: T2, TXA2 receptor (Homo sapiens, UniProt P21731); assay: Binding activity to TXA2 receptor in human platelet membrane fraction ([3H](+)-S-145 sodium salt)
T2 construct: The human platelet membrane fraction was prepared in accordance with Experiment 1 (1); from tissue; host or cells: human platelet membrane fraction from blood of healthy volunteers
T2 sequence (P21731 1-343): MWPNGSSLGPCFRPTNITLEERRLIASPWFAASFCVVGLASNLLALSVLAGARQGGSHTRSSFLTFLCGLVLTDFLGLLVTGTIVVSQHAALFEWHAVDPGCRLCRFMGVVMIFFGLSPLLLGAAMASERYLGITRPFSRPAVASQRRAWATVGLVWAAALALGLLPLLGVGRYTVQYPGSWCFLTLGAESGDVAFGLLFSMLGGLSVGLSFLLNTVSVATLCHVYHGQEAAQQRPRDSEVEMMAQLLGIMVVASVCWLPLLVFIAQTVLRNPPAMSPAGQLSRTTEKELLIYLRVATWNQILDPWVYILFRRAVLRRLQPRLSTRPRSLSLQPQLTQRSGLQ
Procedure: Experiment 2 Binding activity to TXA2 Receptor
(§1) (1) Preparation of Human Platelet Membrane Fraction
The human platelet membrane fraction was prepared in accordance with Experiment 1 (1).
(2) Binding to TXA2 Receptor
To a binding-reaction solution (50 mM Tris/HCl, pH 7.4, 10 mM MgCl2) (0.2 ml) were added the human platelet membrane fraction (0.05 mg) and 2 nM Sodium [^3H](+)-(5Z)-7- [3-endo- [(phenylsulfonyl)amino]bicyclo[2.2.1]hept-2-exo-yl]heptenoate (Japanese Patent Publication (Kokoku) No.79060/1993, hereinafter referred to as (+)—S—145 sodium salt) (26.4 Ci/mmol), and the mixture was reacted at room temperature for 90 min. After the reaction, the resultant mixture was filtered through a glass fiber filter paper and washed several times with cooled physiological saline, then the radioactivity retained on the filter paper was measured. The specific-binding ratio was calculated by subtracting the non-specific binding ratio (the radio activity similarly determined in the presence of 10 μM (+)—S—145 sodium salt) from the total binding.

PGD2 receptor [2] = biological target: T1, PGD2 receptor; assay: Binding activity to PGD2 receptor in human platelet membrane fraction ([3H]PGD2); design: The platelets were homogenized using a homogenizer (Ultra-Turrax) followed by centrifugation 3 times at 20,000 rpm; from tissue; host or cells: human platelet membrane fraction from blood of healthy volunteers
Procedure: Experiment 1 Binding activity to PGD2 Receptor
as §1
Blood was collected using a plastic syringe containing 3.8% sodium citrate from the vein of healthy volunteers (adult male and female), then put into a plastic test tube and mixed by slow-reversion. The sample was then centrifuged at 1800 rpm, for 10 min at room temperature, and the supernatant containing PRP (platelet-rich plasma) was collected. The PRP was recentrifuged at 2300 rpm, for 22 min at room temperature to obtain platelets. The platelets were homogenized using a homogenizer (Ultra-Turrax) followed by centrifugation 3 times at 20,000 rpm, 10 min at 4° C.. to obtain a platelet membrane fraction. After protein determination, the membrane fraction was adjusted to 2 mg/ml and preserved in a refrigerator at −80° C.. until using for the binding test.
(2) Binding to PGD2 Receptor
To a binding-reaction solution (50 mM Tris/HCl, pH 7.4, 5 mM MgCl2) (0.2 ml) were added the human platelet membrane fraction (0.1 mg) and 5 nM [^3H]PGD2 (115 Ci/mmol), and the mixture was reacted at 4° C. for 90 min. After the reaction, the mixture was filtered through a glass fiber filter paper and washed several times with cooled physiological saline, then the radioactivity retained on the filter paper was measured. The specific-binding ratio was calculated by subtracting the non-specific binding ratio which is the radioactivity similarly measured in the presence of 10 μM PGD2 from the total binding.

Male Hartley guinea pigs [3] = assay: Antigen-induced bronchial hyperresponsiveness; format: in vivo, guinea pig; settings: acetylcholine dose for 200% increase in bronchoconstriction
Procedure: Antigen-induced bronchial hyperresponsiveness
Male Hartley guinea pigs were actively sensitized to ovalbumin (OVA) by inhalation of aerosolized solution of 1% ovalbumin twice at a week interval. One week after the second sensitization, the animals were treated with antihistamine, diphenhydramine (10 mg/kg, i.p.), and then challenged with 1% OVA aerosol for 5 min. Twenty four hours later, acetylcholine at doses at 3.13, 6. 25, 12.5, 25, 50 and 100 micro g/kg was sequentially injected into the animals which were anesthetized with pentobarbital (30 mg/kg, i.p.). The bronchoconstriction induced by each dose of acetylcholine was monitored by the modified method of Konzett-Rössler technique, and made a dose-response curve of acetylcholine. Using the dose-response curve, the dose required for 200% increase in bronchoconstriction from baseline (PD200) was calculated in each animal and used as an indication of bronchial responsiveness. Compounds were orally administered 1 hour before antigen challenge. **: P<0.01 vs Vehicle(Dunnett's test), ##: P<0.01 vs Vehicle(Student's t test).

Male Hartley guinea pigs [4] = assay: Antigen-induced bronchoconstriction; format: in vivo, guinea pig
Procedure: Antigen-induced bronchoconstriction
Male Hartley guinea pigs were passively sensitized by intravenous injection of anti-OVA serum (antibody titer: 1: 3200), and 48 hours later, the animals were challenged by intravenous injection of OVA (70 micro g/kg). The bronchoconstriction induced by antigen was continuously monitored by means of modified method of Konzett-Rössler technique. The peak value of bronchoconstriction in each animal was used for evaluation of compounds. Compound (I-1b) and compound (B-2) were orally administered 1 hour before, compound (A) 2 hours before antigen challenge. The results are shown as follows. *: P<0.05 vs Vehicle, ##: P<0.01 vs Vehicle. ( ): inhibition %.

[5] = 0.1 μM PGD2, read-out: Inhibitory activity for the increase of cAMP caused by PGD2 in human platelet IC50
[6] = 2 nM [3H](+)-S-145 sodium salt, room temperature, 90 min, read-out: Binding activity to TXA2 receptor in human platelet membrane fraction IC50
[7] = 5 nM [3H]PGD2, 4° C., 90 min, read-out: Binding activity to PGD2 receptor in human platelet membrane fraction IC50
[8] = 1 mg/kg orally 1 hour before antigen challenge
[9] = 10 mg/kg orally 1 hour before antigen challenge
[10] = Comparative Experiment 1, read-out: Experiment 3 Antaginistic activity against PGD2 receptor IC50
[11] = Comparative Experiment 1, read-out: Experiment 2 Antaginistic activity against TXA2 receptor IC50
[12] = Comparative Experiment 1, read-out: Experiment 1 Antaginistic activity against PGD2 receptor IC50

IC50 (PGD2 receptor [1]; [5]) [nM] | IC50 (TXA2 receptor; [6]) [nM] | IC50 (PGD2 receptor [2]; [7]) [nM] | SMILES | further results
11 | 28 | 61 | O=C(O)CCCC=CCC1C2CCC(C2)C1NC(=O)c1ccc(Cc2csc3ccccc23)s1 (stereo not drawn) [Compound I-182] | 
9.3 | 13 | 13 | O=C(O)CCCC=CCC1C2CCC(C2)C1NC(=O)c1ccc(SCc2cccs2)s1 (stereo not drawn) [Compound I-106] | 
1.6 | 39 | 0.1 | O=C(O)CCCC=CCC1C2CCC(C2)C1NC(=O)c1ccc(CSc2cccs2)s1 (stereo not drawn) [Compound I-104] | 
26 | 32 | 0.61 | O=C(O)CCCC=CCC1C2CCC(C2)C1NC(=O)c1csc2c(Cc3ccsc3)cccc12 (stereo not drawn) [Compound I-169] | 
8.4 | 72 | 7 | O=C(O)CCCC=CCC1C2CCC(C2)C1NC(=O)c1ccc(Cc2cccs2)s1 (stereo not drawn) [Compound I-93] | 
4.7 | 78 | 7.6 | O=C(O)CCCC=CCC1C2CCC(C2)C1NC(=O)c1ccc(Cc2ccsc2)s1 (stereo not drawn) [Compound I-88] | 
4.6 | 16 | 0.41 | O=C(O)CCCC=CCC1C2CCC(C2)C1NC(=O)c1ccc(Sc2cccs2)s1 (stereo not drawn) [Compound I-59] | 
29 | 34 | 0.46 | O=C(O)CCCC=CCC1C2CCC(C2)C1NC(=O)c1csc2c(Cc3cccs3)cccc12 (stereo not drawn) [Compound I-168] | 
24 | 15 | 0.42 | O=C(O)CCCC=CCC1C2CCC(C2)C1NC(=O)c1ccc(Sc2ccsc2)s1 (stereo not drawn) [Compound I-79] | 

The remaining lines, values behind:

SMILES | IC50 (PGD2 receptor [1]; [5]) [nM] | IC50 (TXA2 receptor; [6]) [nM] | IC50 (PGD2 receptor [2]; [7]) [nM] | further results
CC1(C)C2CC(CC=CCCCC(=O)O)C(NC(=O)c3ccc(S(=O)(=O)c4cccs4)s3)C1C2 (stereo not drawn) [II-18] | 4 | 3.6 | 0.96 | 
CC1(C)C2CC(CC=CCCCC(=O)O)C(NC(=O)c3ccc(S(=O)(=O)n4cccc4)s3)C1C2 (stereo not drawn) [II-15] | 11 | 12 | 2 | 
O=C(O)CCCC=CCC1C2CCC(C2)C1NC(=O)c1ccc(Cc2cc3ccccc3o2)s1 (stereo not drawn) [Compound I-136] | 15 | 16 | 23 | 
O=C(O)CCC/C=C\C[C@H]1[C@@H]2CC[C@@H](C2)[C@@H]1NC(=O)c1ccc(S(=O)(=O)n2cccc2)s1 [Compound I-1b, (5Z)-7-{(1R,2S,3S,4S)-3-[5-(pyrrol-1-ylsulfonyl)-thiophen-2-ylcarbonylamino]-bicyclo[2.2.1]hept-2-yl}-5-heptenoic acid] | 1.3 | 3 | 4.3 | Log PD200 (Male Hartley guinea pigs [3]; [8]): 1.25 ± 0.05; Log PD200 (Male Hartley guinea pigs [3]; [9]): 1.52 ± 0.06**; IC50 (PGD2 receptor [1]; [10]): 1.3 nM; IC50 (TXA2 receptor; [11]): 3 nM; IC50 (PGD2 receptor [2]; [12]): 4.3 nM; Peak bronchoconstriction (Male Hartley guinea pigs [4]; [8]): 47.4 ± 11.4 cm H2O; Peak bronchoconstriction, inhibition % (Male Hartley guinea pigs [4]; [8]): 31%; Peak bronchoconstriction (Male Hartley guinea pigs [4]; [9]): 28.4 ± 12.9 cm H2O; Peak bronchoconstriction, inhibition % (Male Hartley guinea pigs [4]; [9]): 58%
Cc1cc(S(=O)(=O)c2ccc(C(=O)NC3C(CC=CCCCC(=O)O)CC4CC3C4(C)C)s2)cs1 (stereo not drawn) [II-30] | 45 | 4 | 72 | 
Cc1ccc(Cc2ccc(C(=O)NC3C4CCC(C4)C3CC=CCCCC(=O)O)s2)s1 (stereo not drawn) [Compound I-129] | 22 | 52 | 11 | 
Cc1cccn1S(=O)(=O)c1ccc(C(=O)NC2C(CC=CCCCC(=O)O)CC3CC2C3(C)C)s1 (stereo not drawn) [II-34] | 3.9 | 4.4 | 1.5 | 
O=C(O)CCCC=CCC1C2CCC(C2)C1NC(=O)c1ccc(S(=O)(=O)c2cccs2)s1 (stereo not drawn) [Compound I-47] | 7 | 6.2 | 4.1 | 
CC1(C)[C@H]2C[C@H](C/C=C\CCCC(=O)O)[C@@H](NC(=O)c3csc4ccccc34)[C@@H]1C2 [Compound B-1, reference compound] |  |  |  | IC50 (PGD2 receptor [1]; [10]): 41 nM; IC50 (TXA2 receptor; [11]): 3800 nM; IC50 (PGD2 receptor [2]; [12]): 8.2 nM
O=C(O)CCCC=CCC1C2CCC(C2)C1NC(=O)c1ccn(S(=O)(=O)c2cccs2)c1 (stereo not drawn) [Compound I-94] | 10 | 83 | 1 | 
CC1(C)C2CC(CC=CCCCC(=O)O)C(NC(=O)c3ccc(Sc4cccs4)s3)C1C2 (stereo not drawn) [II-21] | 24 | 14 | 0.1 | 
Cc1ccc(S(=O)(=O)c2ccc(C(=O)NC3C4CCC(C4)C3CC=CCCCC(=O)O)s2)s1 (stereo not drawn) [Compound I-82] | 53 | 1.8 | 32 | 
O=C(O)CCCC=CCC1C2CCC(C2)C1NC(=O)c1ccc(S(=O)(=O)c2ccsc2)s1 (stereo not drawn) [Compound I-80] | 39 | 5.2 | 6.6 | 
